Data on one compound can be found in patent US7226922B2 (dated 2007).

A word on the melting point: it is the temperature, or range, at which the solid turns liquid. `Cc1cnn2c(-c3cccc(-c4ccccc4C#N)c3)cnc2c1` displayed a melting point of 164 to 166 °C.
